This passage reports normalised inhibition (eCFP-eYFP dual reporter) results from the OligoGym collection.

For one series, the target named is UBE2K. Briefly: reporter assay of Huesken 2005. The note with it: siRNA. (Reporter assays use an easily measured gene product as a stand-in for the process of interest.)
The next series concerns the target P2RX3. Briefly: reporter assay of Huesken 2005. The note with it: siRNA.

Oligonucleotides are written 5' to 3', each unit as a sugar letter and its base; * is a phosphorothioate linkage, no mark a phosphodiester; rarer units and linkages stand in square brackets, end groups in braces. Plain capitals give the bases only. Oligonucleotides are given in HELM: sugar(base)linkage, 5' to 3'; d 2'-deoxyribose, r ribose, m 2'-O-methylribose, p phosphate. ss, as = sense and antisense strand; d = 2'-deoxy (DNA); r = 2'-OH (RNA)
Note: test concentration or dose not given here.

“RNA1{r(U)p.r(G)p.r(G)p.r(C)p.r(A)p.r(U)p.r(C)p.r(C)p.r(U)p.r(A)p.r(A)p.r(U)p.r(A)p.r(U)p.r(U)p.r(A)p.r(G)p.r(U)p.r(U)p.d(T)p.d(T)}|RNA2{r(A)p.r(A)p.r(C)p.r(U)p.r(A)p.r(A)p.r(U)p.r(A)p.r(U)p.r(U)p.r(A)p.r(G)p.r(G)p.r(A)p.r(U)p.r(G)p.r(C)p.r(C)p.r(A)p.d(T)p.d(A)}$$$RNA1{StrandType:ss}|RNA2{StrandType:as}$” had a normalised inhibition (eCFP-eYFP dual reporter) with UBE2K of 61.6%. As to “RNA1{r(G)p.r(C)p.r(C)p.r(A)p.r(G)p.r(A)p.r(U)p.r(G)p.r(A)p.r(U)p.r(C)p.r(C)p.r(A)p.r(C)p.r(A)p.r(G)p.r(G)p.r(A)p.r(U)p.d(T)p.d(T)}|RNA2{r(A)p.r(U)p.r(C)p.r(C)p.r(U)p.r(G)p.r(U)p.r(G)p.r(G)p.r(A)p.r(U)p.r(C)p.r(A)p.r(U)p.r(C)p.r(U)p.r(G)p.r(G)p.r(C)p.d(T)p.d(C)}$$$RNA1{StrandType:ss}|RNA2{StrandType:as}$”, the normalised inhibition (eCFP-eYFP dual reporter) with UBE2K came to 74.9%. The substance “RNA1{r(C)p.r(C)p.r(C)p.r(G)p.r(A)p.r(A)p.r(A)p.r(U)p.r(G)p.r(U)p.r(U)p.r(C)p.r(A)p.r(A)p.r(A)p.r(C)p.r(A)p.r(G)p.r(A)p.d(T)p.d(T)}|RNA2{r(U)p.r(C)p.r(U)p.r(G)p.r(U)p.r(U)p.r(U)p.r(G)p.r(A)p.r(A)p.r(C)p.r(A)p.r(U)p.r(U)p.r(U)p.r(C)p.r(G)p.r(G)p.r(G)p.d(A)p.d(T)}$$$RNA1{StrandType:ss}|RNA2{StrandType:as}$” returned a normalised inhibition (eCFP-eYFP dual reporter) with UBE2K of 92.7%.

With “RNA1{r(A)p.r(G)p.r(A)p.r(A)p.r(A)p.r(C)p.r(A)p.r(U)p.r(A)p.r(C)p.r(C)p.r(C)p.r(A)p.r(U)p.r(U)p.r(U)p.r(A)p.r(A)p.r(U)p.d(T)p.d(T)}|RNA2{r(A)p.r(U)p.r(U)p.r(A)p.r(A)p.r(A)p.r(U)p.r(G)p.r(G)p.r(G)p.r(U)p.r(A)p.r(U)p.r(G)p.r(U)p.r(U)p.r(U)p.r(C)p.r(U)p.d(G)p.d(G)}$$$RNA1{StrandType:ss}|RNA2{StrandType:as}$”, the normalised inhibition (eCFP-eYFP dual reporter) in the series with UBE2K amounted to 72.3%. The same measure, in the same setting: the result for “RNA1{r(G)p.r(G)p.r(U)p.r(U)p.r(U)p.r(A)p.r(U)p.r(C)p.r(A)p.r(C)p.r(U)p.r(A)p.r(A)p.r(A)p.r(A)p.r(U)p.r(A)p.r(U)p.r(G)p.d(T)p.d(T)}|RNA2{r(C)p.r(A)p.r(U)p.r(A)p.r(U)p.r(U)p.r(U)p.r(U)p.r(A)p.r(G)p.r(U)p.r(G)p.r(A)p.r(U)p.r(A)p.r(A)p.r(A)p.r(C)p.r(C)p.d(G)p.d(G)}$$$RNA1{StrandType:ss}|RNA2{StrandType:as}$” reads 81.2%. Still for that read-out and setting: as for “RNA1{r(A)p.r(U)p.r(C)p.r(C)p.r(U)p.r(A)p.r(A)p.r(U)p.r(A)p.r(U)p.r(U)p.r(A)p.r(G)p.r(U)p.r(U)p.r(C)p.r(C)p.r(G)p.r(U)p.d(T)p.d(T)}|RNA2{r(A)p.r(C)p.r(G)p.r(G)p.r(A)p.r(A)p.r(C)p.r(U)p.r(A)p.r(A)p.r(U)p.r(A)p.r(U)p.r(U)p.r(A)p.r(G)p.r(G)p.r(A)p.r(U)p.d(G)p.d(C)}$$$RNA1{StrandType:ss}|RNA2{StrandType:as}$”, the figure is 53.2%. Same read-out and setting: the result for “RNA1{r(A)p.r(C)p.r(U)p.r(A)p.r(U)p.r(U)p.r(G)p.r(G)p.r(C)p.r(A)p.r(G)p.r(C)p.r(U)p.r(G)p.r(C)p.r(A)p.r(G)p.r(A)p.r(G)p.d(T)p.d(T)}|RNA2{r(C)p.r(U)p.r(C)p.r(U)p.r(G)p.r(C)p.r(A)p.r(G)p.r(C)p.r(U)p.r(G)p.r(C)p.r(C)p.r(A)p.r(A)p.r(U)p.r(A)p.r(G)p.r(U)p.d(G)p.d(C)}$$$RNA1{StrandType:ss}|RNA2{StrandType:as}$” reads 62%; that for “RNA1{r(U)p.r(G)p.r(G)p.r(G)p.r(C)p.r(A)p.r(G)p.r(C)p.r(U)p.r(G)p.r(C)p.r(A)p.r(A)p.r(U)p.r(G)p.r(A)p.r(C)p.r(U)p.r(C)p.d(T)p.d(T)}|RNA2{r(G)p.r(A)p.r(G)p.r(U)p.r(C)p.r(A)p.r(U)p.r(U)p.r(G)p.r(C)p.r(A)p.r(G)p.r(C)p.r(U)p.r(G)p.r(C)p.r(C)p.r(C)p.r(A)p.d(T)p.d(T)}$$$RNA1{StrandType:ss}|RNA2{StrandType:as}$”, 44.2%; that for “RNA1{r(A)p.r(U)p.r(U)p.r(A)p.r(A)p.r(A)p.r(G)p.r(U)p.r(A)p.r(G)p.r(A)p.r(U)p.r(C)p.r(U)p.r(U)p.r(G)p.r(U)p.r(A)p.r(G)p.d(T)p.d(T)}|RNA2{r(C)p.r(U)p.r(A)p.r(C)p.r(A)p.r(A)p.r(G)p.r(A)p.r(U)p.r(C)p.r(U)p.r(A)p.r(C)p.r(U)p.r(U)p.r(U)p.r(A)p.r(A)p.r(U)p.d(T)p.d(T)}$$$RNA1{StrandType:ss}|RNA2{StrandType:as}$”, 45.8%. On to “sense rArUrCrGrGrGrArUrCrArUrCrArArCrCrGrArGdTdT / antisense rCrUrCrGrGrUrUrGrArUrGrArUrCrCrCrGrArUdGdG”, for which the normalised inhibition (eCFP-eYFP dual reporter) with P2RX3 was 39.3%.

“sense rUrUrGrCrGrGrGrGrCrArGrGrArUrUrUrUrGrCdTdT / antisense rGrCrArArArArUrCrCrUrGrCrCrCrCrGrCrArAdAdC” showed a normalised inhibition (eCFP-eYFP dual reporter) with P2RX3 of 33.4%. Same read-out and setting: as for “sense rGrGrGrUrArGrGrGrGrArCrGrUrGrGrUrCrArAdTdT / antisense rUrUrGrArCrCrArCrGrUrCrCrCrCrUrArCrCrCdGdC”, the figure is 94.9%; as for “sense rUrUrCrUrGrCrCrCrArGrArGrArGrUrGrArGrGdTdT / antisense rCrCrUrCrArCrUrCrUrCrUrGrGrGrCrArGrArAdTdC”, 44.3%. Same read-out and setting: the result for “sense rArGrUrArCrArArArGrCrCrArArGrArArGrUrUdTdT / antisense rArArCrUrUrCrUrUrGrGrCrUrUrUrGrUrArCrUdGdG” reads 99.5%. In the case of “sense rUrCrGrGrCrUrGrGrGrUrGrUrGrCrGrArCrUrUdTdT / antisense rArArGrUrCrGrCrArCrArCrCrCrArGrCrCrGrAdTdC”, the normalised inhibition (eCFP-eYFP dual reporter) in the series with P2RX3 was 77.1%. With “sense rGrArCrCrCrUrUrUrCrUrGrCrCrCrCrArUrCrUdTdT / antisense rArGrArUrGrGrGrGrCrArGrArArArGrGrGrUrCdCdT”, the normalised inhibition (eCFP-eYFP dual reporter) in the series with P2RX3 was determined as 65.8%. Still for that read-out and setting: the result for “sense rCrArUrCrArArCrCrGrArGrUrArGrUrUrCrArGdTdT / antisense rCrUrGrArArCrUrArCrUrCrGrGrUrUrGrArUrGdAdT” reads 74.7%. Still for that read-out and setting: as for “sense rArUrGrUrGrUrCrUrGrArUrUrArCrGrUrGrArCdTdT / antisense rGrUrCrArCrGrUrArArUrCrArGrArCrArCrArUdCdC”, the figure is 33.9%; as for “sense rCrUrCrUrGrUrGrCrUrCrCrGrGrArCrCrUrGrUdTdT / antisense rArCrArGrGrUrCrCrGrGrArGrCrArCrArGrArGdCdT”, 41.9%. Consider “sense rCrUrGrArArArArUrCrArGrArUrGrCrArArGrGdTdT / antisense rCrCrUrUrGrCrArUrCrUrGrArUrUrUrUrCrArGdTdA”, for which the normalised inhibition (eCFP-eYFP dual reporter) with P2RX3 was 85.5%.

In the series with P2RX3, “sense rGrArUrUrCrUrGrCrCrCrArGrArGrArGrUrGrAdTdT / antisense rUrCrArCrUrCrUrCrUrGrGrGrCrArGrArArUrCdCdT” yielded a normalised inhibition (eCFP-eYFP dual reporter) of 96.9%. The substance “sense rGrCrGrGrArGrArArGrCrArGrUrCrCrArCrCrGdTdT / antisense rCrGrGrUrGrGrArCrUrGrCrUrUrCrUrCrCrGrCdTdG” gave a normalised inhibition (eCFP-eYFP dual reporter) with P2RX3 of 81.8%. With “sense rGrArGrUrArGrUrUrCrArGrCrUrUrCrUrGrArUdTdT / antisense rArUrCrArGrArArGrCrUrGrArArCrUrArCrUrCdGdG”, the normalised inhibition (eCFP-eYFP dual reporter) with P2RX3 was found to be 91.8%.

The substance “sense rGrCrGrGrCrCrUrUrUrArCrUrUrCrUrGrUrGrGdTdT / antisense rCrCrArCrArGrArArGrUrArArArGrGrCrCrGrCdCdA” showed a normalised inhibition (eCFP-eYFP dual reporter) with P2RX3 of 61.4%. For “sense rUrUrArArGrArUrCrGrGrCrUrGrGrGrUrGrUrGdTdT / antisense rCrArCrArCrCrCrArGrCrCrGrArUrCrUrUrArAdTdG”, in the series with P2RX3, the normalised inhibition (eCFP-eYFP dual reporter) is 55.4%. Still for that read-out and setting: as for “sense rUrCrArGrArCrArGrCrCrArGrUrGrCrGrGrGrCdTdT / antisense rGrCrCrCrGrCrArCrUrGrGrCrUrGrUrCrUrGrAdTdA”, the figure is 23.8%; as for “sense rUrUrUrCrUrGrCrCrCrCrArUrCrUrUrGrCrGrGdTdT / antisense rCrCrGrCrArArGrArUrGrGrGrGrCrArGrArArAdGdG”, 35.2%.

Regarding “sense rGrGrArArArCrGrCrCrCrArUrCrArUrGrArUrGdTdT / antisense rCrArUrCrArUrGrArUrGrGrGrCrGrUrUrUrCrCdAdC”, the normalised inhibition (eCFP-eYFP dual reporter) with P2RX3 came to 74.8%.

With “sense rCrCrUrGrArCrArGrCrCrArGrGrGrArCrArUrGdTdT / antisense rCrArUrGrUrCrCrCrUrGrGrCrUrGrUrCrArGrGdTdT”, the normalised inhibition (eCFP-eYFP dual reporter) with P2RX3 was 33.4%. Still for that read-out and setting: the result for “sense rCrCrArCrArGrCrGrGrArGrArArGrCrArGrUrCdTdT / antisense rGrArCrUrGrCrUrUrCrUrCrCrGrCrUrGrUrGrGdTdC” reads 62.7%; that for “sense rCrCrArArGrArUrGrArUrUrGrUrUrArCrUrGrAdTdT / antisense rUrCrArGrUrArArCrArArUrCrArUrCrUrUrGrGdTdG”, 98.9%.

On to “sense rArGrUrUrCrArGrCrUrUrCrUrGrArUrCrArUrCdTdT / antisense rGrArUrGrArUrCrArGrArArGrCrUrGrArArCrUdAdC”, for which, in the series with P2RX3, the normalised inhibition (eCFP-eYFP dual reporter) came to 72.3%. Same read-out and setting: as for “sense rGrGrCrCrGrCrUrGrCrGrUrGrArArCrUrArCrAdTdT / antisense rUrGrUrArGrUrUrCrArCrGrCrArGrCrGrGrCrCdAdG”, the figure is 72.3%. The same measure, in the same setting: as for “sense rGrArArGrCrUrGrArGrArArCrUrUrCrArCrUrAdTdT / antisense rUrArGrUrGrArArGrUrUrCrUrCrArGrCrUrUrCdCdA”, the figure is 88.8%; as for “sense rArArCrCrGrArGrUrArGrUrUrCrArGrCrUrUrCdTdT / antisense rGrArArGrCrUrGrArArCrUrArCrUrCrGrGrUrUdGdA”, 62%; as for “sense rUrUrGrUrUrArCrUrGrArArArArUrCrArGrArUdTdT / antisense rArUrCrUrGrArUrUrUrUrCrArGrUrArArCrArAdTdC”, 54.1%.
